# Measurements: article PMC10403513, “Tasmanian devil cathelicidins exhibit anticancer activity against Devil Facial Tumour Disease (DFTD) cells” (Scientific Reports, 2023)
# No end group written: not given here.
# Experiments:
# DFT1 1426 cells [1] = assay: Ingenuity Pathway Analysis (canonical pathways) of DE genes in treated DFT1 1426 cells; format: cell-based, Tasmanian devil (Sarcophilus harrisii); conditions: DE genes of cells treated with 500 μg/mL for 10 h
# Experimental: (§1) Over-representation analysis of Biological Processes was conducted in clusterProfiler v3.18.1[57]. Statistical significance was adjusted for multiple comparisons using the Benjamini–Hochberg method, and terms were considered significant when p-adj < 0.05. To remove general terms, gene sets larger than 200 were removed, and the simplify function was used to remove redundant GO terms. Further pathway analysis was conducted in IPA (Qiagen)[58], using mammal as the species type and nervous system for the tissue/cell type.
# human cell line A549 = conditions: cited from earlier work
# Experimental: Here we aimed to identify cathelicidin candidates for future development as anti-DFTD therapeutics. Four Tasmanian devil cathelicidins (Saha-CATH3, 4, 5 and 6) were toxic to DFT1 1426 cells at high concentrations: Saha-CATH3 at concentrations ≥ 62.5 µg/mL; Saha-CATH4 at 500 µg/mL; Saha-CATH5 at concentrations ≥ 125 µg/mL and Saha-CATH6 at concentrations ≥ 250 µg/mL. Previous studies have shown that two of these peptides (Saha-CATH3 and 4) are non-toxic to human cell line A549[44]. The other two (Saha-CATH5 and 6) reduced cell viability at high concentrations (500 µg/mL), resulting in 42% and 5 ...
# DFT1 1426 cells [2] = format: cell-based, Tasmanian devil (Sarcophilus harrisii); conditions: for decrease in cell viability compared to the growth control / incubation period required before exhibiting a similar level of toxicity to Saha-CATH5: 500 μg/mL; for decrease in cell viability compared to the growth control: 36 h, alamarBlue, quadruplicate; for decrease in cell viability compared to the growth control / incubation period required before exhibiting a similar level of toxicity to Saha-CATH5 / effect on cell viability (in words): DFT1 1426 cells; for cytotoxic concentration (cell viability reduced by more than 50%): 18 h; for concentration toxic to DFT1 1426 cells: summary in the discussion; for effect on cell viability (in words): 12-36 h
# Experimental: The DFT1 cell line 1426, derived from a primary DFT1 tumour, was obtained from Menzies Institute for Medical Research, University of Tasmania. The cell line was maintained in RPMI 1640 media with 2 mM L-glutamine (Gibco) supplemented with 10% AmnioMax II (Gibco), 10% heat-inactivated foetal bovine serum (FBS) and 1% penicillin/streptomycin (Sigma-Aldrich), in T75 flasks (Nunc) at 35 °C 5% CO2. Cells were passaged using trypsin–EDTA (Sigma-Aldrich) when 90% confluent.
# Toxicity of seven Tasmanian devil cathelicidins against DFT1 1426 cells was determined for twofold dilutions from 500 to 15.62 µg/mL, and four different timepoints (12, 18, 24 and 36 h). Confluent DFT1 1426 cells (passage 22) were re-suspended in RPMI 1640 with 10% FBS and 10% AmnioMax II at a concentration of 5 × 10^5 cells/mL, and 100μL seeded into each well of a sterile flat-bottom 96 well plate (Corning), with individual plates for each timepoint (12, 18, 24 and 36 h). All plates were incubated for 24 h at 35 °C 5% CO2 prior to the cytotoxicity test.
# At 0 h, 100 μL of each peptide dilution was then added to each plate in quadruplicate for all timepoints (12, 18, 24 and 36 h), resulting in a final peptide concentrations of 500 μg/mL, 250 μg/mL, 125 μg/mL, 62.50 μg/mL, 31.25 μg/mL and 15.62 μg/mL. […] An untreated growth control of RPMI 1640, a positive control of dimethylsulfoxide (DMSO) (15%) and sterility control of RPMI 1640 only (no cells) were also included for each time point.
# For the 12 h timepoint, 10% alamarBlue was immediately added to each well of the plate after addition of the peptide. For the remaining timepoints, plates were incubated for an additional 6, 12 or 24 h after addition of the peptides, then 10% alamarBlue added to each well. For all timepoints, after the addition of alamarBlue cells were incubated for a further 12 h, resulting in a total peptide incubation period of 12, 18, 24 and 36 h. Absorbance of alamarBlue for all timepoints was determined at 570 nm and 630 nm on a Biotek 800 TS microplate reader. Cell viability was calculated according to manufacturer’s instructions and expressed as a percentage of cell survival compared to the untreated growth control.
# A one-sample, one-tailed t-test was used to test for significant difference in viability between treated cells and the negative growth control. A one sample, two-tailed t-test was also conducted to ensure there was no significant difference in viability between the negative growth control and the cells treated with the solvent only. Statistical analysis was conducted in R (R Development Core Team 2021).
# human red blood cells = conditions: cited from earlier work
# Source text: Cathelicidins have been isolated from many vertebrate taxa[34]–[37]. However, they have undergone gene expansion in marsupials due to the need for additional protection of immunologically naïve young during development in the pouch. […] During development within the pouch, young are exposed to diverse microbial flora, some of which are pathogenic. This has likely encouraged the lineage-specific expansion of cathelicidins in marsupials, resulting in mult ...
# DFT1 1426 cells [3] = assay: RNAseq differential gene expression in peptide-treated DFT1 1426 cells; format: cell-based, Tasmanian devil (Sarcophilus harrisii); conditions: 500 μg/mL, 10 h, n = 3, vs vehicle control; for Fold change, gene CCND3 / Fold change, gene CCNE1 / Fold change, gene CCNE2: G1-S phase transition; for Fold change, gene E2F2: cyclin transcription factor; for Fold change, gene IL6: cytokine; for Fold change, gene MYD88: immune signaling; for percentage of DE genes: of 15,548 genes; for Fold change, gene RUNX1: transcription factor
# Experimental: RNAseq was used to characterize the mechanisms underlying the anticancer activity of the peptides. Confluent DFT1 1426 cells (passage number 25) were re-suspended at a concentration of 5 × 10^5 cells/ml and 1 mL seeded into each well of a sterile flat-bottom polystyrene 12-well plate (Corning). Following incubation for 24 h at 35 °C 5% CO2, media was aspirated from the cells and replaced with 500 μL of RPMI 1640 with 2 mM L-glutamine, 10% FBS and 10% AmnioMax II. 500 μL of each 1 mg/mL peptide solution (Saha-CATH1 to 7) was then added to the plate in triplicate, to give a final peptide concentration of 500 μg/mL. […] A vehicle control was also added to the plate in triplicate.
# The plate was then incubated for a further 10 h at 35 °C in 5% CO2. This incubation period was selected as the cytotoxicity assay indicated it was sublethal for most of the peptides and would maintain sufficient cell viability to extract intact RNA. Media was then aspirated from the cells, which were washed twice with Dulbecco’s phosphate buffered saline (DPBS) (Sigma-Aldrich).
# Total RNA was extracted from each replicate of the peptide-treated and vehicle control cells (n = 3) using the RNeasy mini kit (Qiagen) with cell lysis directly in each well of the 12 well plate. Total RNA was quality assessed using the RNA nano 6000 kit on the Agilent Bioanalyzer with all samples displaying a RIN score between 5 and 9. In total, 24 RNA samples corresponding to three treatments per peptide (Saha-CATH1 to 7) and a vehicle control were submitted to Ramaciotti Centre for Genomics (The University of New South Wales) for sequencing. Illumina TruSeq mRNA libraries were prepared for all samples, which were sequenced as 2 × 150 bp paired-end reads across an SP flowcell on the NovaSeq6000.
# Raw reads were quality assessed using FastQC v0.11.8[47], then quality and length trimmed using Trimmomatic v0.39[48] using default parameters. Trimmed reads for each treatment (n = 3) and the control (n = 3) were aligned to the Tasmanian devil reference genome v7.0 (NCBI: GCA_000189315.1[49] using STAR v2.7.8a[50]. Alignments for each treatment were summarized into gene counts using featureCounts in the subread package v1.5.1[51].
# Gene counts were used as input for differential expression analysis in R[52]. Genes with less than 50 counts across all samples were removed from the analysis, as these were unlikely to be biologically relevant and lacked sufficient statistical power. Firstly, the data was normalized by trimmed mean of M values (TMM) using edgeR v3.32.1[53] to account for any composition bias between libraries and to give an effective library size for downstream analysis. Multidimensional scaling (MDS) was used to check for variation between treatments using limma v3.36.0[54]. Expression levels were then normalized using upper-quartile normalization in EDAseq v2.24.0[55] to account for differences in distribution between lanes, such as sequencing depth. Differential expression analysis was performed using voom in the limma v3.36.0 package.
# as §1
# [4] = pre-replication complex, RNAseq
Sequence,"IPA z-score, Cyclins and Cell Cycle Regulation (DFT1 1426 cells [1])","IPA z-score, Th17 activation pathway (DFT1 1426 cells [1])",toxicity to human cell line A549 (in words) (human cell line A549),decrease in cell viability compared to the growth control (DFT1 1426 cells [2]),incubation period required before exhibiting a similar level of toxicity to Saha-CATH5 (DFT1 1426 cells [2]),cytotoxic concentration (cell viability reduced by more than 50%) (DFT1 1426 cells [2]),concentration toxic to DFT1 1426 cells (DFT1 1426 cells [2]),"Fold change, gene CCND3 (DFT1 1426 cells [3]; RNAseq)","Fold change, gene CCNE1 (DFT1 1426 cells [3]; RNAseq)","Fold change, gene CCNE2 (DFT1 1426 cells [3]; RNAseq)","Fold change, gene E2F2 (DFT1 1426 cells [3]; RNAseq)","Fold change, gene IL1R1 (DFT1 1426 cells [3]; cytokine receptor, RNAseq)","Fold change, gene IL6R (DFT1 1426 cells [3]; cytokine receptor, RNAseq)","Fold change, gene IL6 (DFT1 1426 cells [3]; RNAseq)","Fold change, gene MYD88 (DFT1 1426 cells [3]; RNAseq)",percentage of DE genes (DFT1 1426 cells [3]),"Fold change, gene RUNX1 (DFT1 1426 cells [3]; RNAseq)",effect on cell viability (in words) (DFT1 1426 cells [2]; 500 µg/mL),other results
KRMGIFHLFWAGLRKLGNLIKNKIQQGIENFLG [Saha-CATH3],-2.333,3.317,non-toxic,more than 50%,18 h,62.5 to 250 µg/mL,≥ 62.5 µg/mL,0.62,0.57,0.61,0.48,2.41,2.88,4.38,2.64,12.63%,2.71,,haemolysis of human red blood cells (in words) (human red blood cells): not haemolytic
"KREDFLDQIIRDFRNFIYQKYRRLRDEFRKLRDILSG [Saha-CATH4, Tasmanian devil cathelicidin mature peptide, synthesized by ChinaPeptides Co. Ltd to 95% purity]",-3.317,3.317,non-toxic,,,,500 µg/mL,0.35,0.44,0.31,0.28,,5.25,3.73,4.15,18.75%,2.43,,"IPA z-score, cell cycle control of chromosomal replication (DFT1 1426 cells [1]): -3.638; Fold change, gene CDC6 (DFT1 1426 cells [3]; [4]): 0.29; Fold change, gene CDC7 (DFT1 1426 cells [3]; [4]): 0.38; Fold change, gene ORC1 (DFT1 1426 cells [3]; [4]): 0.46"
"GIKHILFMAKTKLPRATCTAEIKENCDRKK [Saha-CATH1, Tasmanian devil cathelicidin mature peptide, synthesized by ChinaPeptides Co. Ltd to 95% purity]",,,,,,,,,,,,,,,,less than 1%,,did not reduce cell viability,
"STILEDPGKIRERRDIGEEPIQKKQKMYRDQMQ [Saha-CATH7, Tasmanian devil cathelicidin mature peptide, synthesized by ChinaPeptides Co. Ltd to 95% purity]",,,,,,,,,,,,,,,,less than 1%,,did not reduce cell viability,"number of differentially expressed (DE) genes (DFT1 1426 cells [3]; out of a total of 15,548 genes): 0"
KRIRFFERIRDRLRDLGNRIKNRIRDFFS [Saha-CATH6],,2.53,,more than 50%,18 h,≥ 250 µg/mL,≥ 250 µg/mL,,,,,2.29,1.70,11.14,1.78,15.56%,1.61,,"IPA z-score, EIF2 signaling (DFT1 1426 cells [1]): 4.352; cell survival of human cell line A549 (human cell line A549; 500 µg/mL): 59%; cell viability (% of untreated growth control) (DFT1 1426 cells [2]; 500 µg/mL, after 18 h, mean of quadruplicate): 0%; concentration at which moderately haemolytic (human red blood cells; human red blood cells): above 250 μg/mL; Fold change (FC), ATF3 (DFT1 1426 cells [3]; RNAseq): 5.02; Fold change (FC), CHOP (DDIT3) (DFT1 1426 cells [3]; RNAseq): 1.91; Fold change (FC), GADD34 (PPP1R15A) (DFT1 1426 cells [3]; RNAseq): 2.14; Fold change, gene IL21R (DFT1 1426 cells [3]; cytokine receptor, RNAseq): 1.58"
"TFKRKNGSRKNGHRPGGYSLIALGNKKVLKAPYMESI [Saha-CATH2, Tasmanian devil cathelicidin mature peptide, synthesized by ChinaPeptides Co. Ltd to 95% purity]",,,,,,,,,,,,,,,,less than 1%,,did not reduce cell viability,
